Source: patent US10791741B2, “Plant growth regulator” (JIANGSU HUIFENG BIO TECHNOLOGY CO., LTD., priority 2016, dated 2020)

System: melon
Assay: Comprehensive test on growth regulation for melon by thidiazuron combined with amino-oligosaccharin
Type: in vivo
Conditions: 42 mg/kg
Description: 1. Comprehensive Test on Growth Regulation for Melon by Thidiazuron Combined with Amino-Oligosaccharin
The thidiazuron and amino-oligosaccharin were diluted with acetone to give a series of concentrations, and the crops were sprayed in the flowering phase to determine the effect of each concentration on crop growth in the field, so as to make a comprehensive evaluation with respect to the carpopodium diameter, fruit setting rate, disease inhibition rate, quality, and yield of the crops. Carpopodium diameter increase rate=(Plant height in water control group−Plant height in treatment group)/Plant height in water control group*100% Fruit setting increase rate=(Stem diameter in treatment group−Stem diameter in water control group)/Stem diameter in water control group*100% Disease reduction rate=(Disease index in water control group−Disease index in treatment group)/Disease index in water control group*100% Single fruit weight increase rate=(weight in treatment group−quality in water control group)/weight in water control group*100% Central sugar increase rate=(Central sugar content in treatment group−Central sugar content in water control group)/Central sugar content in water control group*100%

[1] = flowering phase, vs water control
[2] = sprayed in flowering phase, 1 application

`O=C(Nc1ccccc1)Nc1cnns1` [Thidiazuron, thidiazuron] was tested, and the “Anthracnose index reduction rate (disease reduction rate)” value [1] was 17.6%, the “Carpopodium diameter increase rate” value [1] was 4.0% and the “Central sugar increase rate” value [1] was 7.4%. For the same compound, the “Fruit setting increase rate” value [1] was 8.6%, the “Single fruit weight increase rate” value [1] was 8.9% and the Anthracnose index [2] was 17.76. It also gave a Carpopodium diameter [2] of 6.65 mm, a Central sugar content [2] of 9.36% and a Fruit setting rate [2] of 27.0%. For the same compound, the Single fruit weight [2] was 1.03 kg.
